# From patent publication US12629390B2, “Stabilized amorphous calcium carbonate for treatment of neurological, muscular and infertility diseases or conditions” (AMORPHICAL LTD., priority 2016, dated 2026)
# Tests used:
# [1] = test system: spinal cord-dorsal root ganglia (SC-DRG) slices; assay: nerve fiber sprouting from SC-DRG co-cultures; type: cell-based, rat; conditions: calcium preparation at Ca2+ 2 mM; after 4 days of cultivation; portion of explants (out of 6)
# Protocol: Neural and Vascular Reconstruction Gel ([…] Labs proprietary) is composed of two main components: high molecular hyaluronic acid (HA, 3×10^6 Da, BTG, Israel) and laminin (Sigma). […] The gel has the texture of a viscous liquid, it adheres easily and successfully the embedded cells or explants to the plastic or glass substratum, and enabled nerve fiber outgrowth in a 3D pattern. All the experiments were carried out and authorized by the local ethics committee recognized by the Israeli authorities for animal experimentation. Stationary organotypic cultures of dorsal root ganglia (DRG) and spinal cord (SC) as well as cultures of dissociated brain cells were prepared from rat fetuses (15 days of gestation, Lewis inbred, Harlan, Israel). Immediately after dissection, the isolated tissues were cut with a […] tissue chopper into small slices (of 400 μm thickness). In these studies, two tissue culture strategies were used. […] In the second method, the tissue slices were further dissociated with a trypsin-EDTA solution for 30 min, and washed with a culture medium. Subsequently, the dissociated cells were added to a suspension of chitosan powder or gastrolith powder (micro carriers, MCs) and incubated in suspension at 37° C. for 4 days. […] Calcium source were as following: ACC-Etidronic Acid (ACC-ET) (fresh suspension); ACC-Phosphoserine (ACC-PS) (fresh suspension); Gastrolith (dissolved with 0.1 M HCl and then neutralized with NaOH 1M); gastrolith powder; […] The cultures were monitored by daily phase contrast microscopic observations starting from 24 hours after setting the cultures onward. Suspensions of fresh ACC preparations consisted of particles forming a stable suspension. The gastrolith is a natural ACC isolated from crabs, and can be purchased only as a dry powder. In this form, its other characteristic components (such as calcium ions and proteins) are not available to the cells. In order to increase their bioavailability, the gastrolith powder was dissolved in 0.1 M HCl (which mimics the acidity which exists in the stomach) and then neutralized with 1M NaOH. […] The specimens were then incubated with rabbit anti-neurofilament antibodies (NF, Novus Biologicals, 1:500) to visualize the neurite outgrowth. […] Finally, the samples were rinsed again with wash buffer, and mounted with mounting medium (Immco Diagnostic, USA).
# [2] = test system: healthy skeletal muscle cultures; assay: myotube formation and contraction in healthy skeletal muscle cultures; type: cell-based, rat; conditions: added at 1 mM (final Ca2+ 2 mM)
# Protocol: Stationary skeletal muscle cultures were prepared from healthy 1 day new born rat (Sprague Dawley, Harlan, Israel). The muscle tissue was dissected from posterior legs and was thoroughly minced. Digestion was performed with Trypsin-EDTA while gentle trituration. After 30 min the supernatant, containing dissociated cells, was collected and a fresh Trypsin-EDTA was added. This procedure was repeated two more times. Then, all supernatants were pooled, centrifuged, and the cell pellet was re-suspended in Proliferation Medium. Cells were seeded in a Gelatin coated 12 wells culture plates, 1×10^5 cells/well containing 1 mL of Proliferation Medium. Two days later, the medium was changed to Fusion Medium, which was then changed twice a week. The cultures were monitored by daily phase contrast microscopic observations from 24 hours after setting the cultures and onward.
# Stock solution of 1% porcine gelatin in water, was sterilized by autoclave. Once cooled, 500 μl of the solution were added to each well of the 12-wells culture plat. After incubation for 20 min at room temperature, the excess solution was removed, and the cells were seeded.
# For the proliferation stage, cells were cultured in: DMEM/F12 (containing 1 mM Ca^2+) +10% FBS, 25 μg/mL Gentamycin, and 2 mM L-Glutamine.
# For the fusion stage the Proliferation Medium was changed with Fusion Medium, which was prepared as following: DMEM/F12 (containing 1 mM Ca2+), 2% horse serum (HS), 2 mM L-Glutamine, 25 μg/mL Gentamycin, and 4 units/100 mL Insulin (all purchased from Biological-Industries, Israel).
# Control cultures were grown without further added calcium, or cultures enriched with free (soluble) stabilizer. The experiment was blinded by marking the various calcium preparations with arbitrary numerals only.
# The components were added in one of the following ways: (i) aqueous suspensions of dry material; (ii) aqueous suspension of fresh material (before drying), or (iii) dissolved with HCl (to mimic the acidity which exists in the stomach. After dissolving was accomplished, the formed solutions were neutralized with 1M NaOH).
smiles,measurement,setting,value
"[Ca+2].[Cl-].[Cl-] [CaCl2, calcium chloride]",Cultures with axonal regeneration (%),[1],50%
same,muscle fibers after 7 days,[2],"fewer, thinner and shorter muscle fibers"
same,"early formation of many myotubes, time of cultivation",[2]; dry powder suspended in water,later
